{"source": "patent US12383538B2", "about": "“Use of mTOR inhibitors for prevention of intestinal polyp growth and cancer” (priority 2013, dated 2025)", "origin": "cited, not measured here", "system": "colorectal adenomas", "conditions": "adults with FAP, 6-month trial"}
{"smiles": "Cc1ccc(-c2cc(C(F)(F)F)nn2-c2ccc(S(N)(=O)=O)cc2)cc1", "note": "[celecoxib]", "values": [{"measurement": "tolerability", "value": "well tolerated"}]}
